# Results taken from patent publication US11116757B2 (priority 2015, dated 2021).
# Target: DCN1-UBC12 interaction (Homo sapiens (Human), UniProt Q96GG9)
# Experiment: biochemical
# Assay type: binding
# Settings: Table 4, commercial compounds; read-out: TR-FRET IC50
# Chain of DCN1-UBC12 interaction (Q96GG9 60-248 limits assumed): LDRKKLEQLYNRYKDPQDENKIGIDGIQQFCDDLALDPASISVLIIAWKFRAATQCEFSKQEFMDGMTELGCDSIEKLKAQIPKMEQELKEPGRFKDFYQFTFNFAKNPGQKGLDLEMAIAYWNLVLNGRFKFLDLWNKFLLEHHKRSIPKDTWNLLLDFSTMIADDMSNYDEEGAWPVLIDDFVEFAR
row,Compound,IC50
1,Cc1cc(NC(=O)C2CCN(C(=O)c3ccco3)CC2)ccc1Br [C38],> 67.6 µM
2,COc1ccc(NC(=O)C2CCN(C(=O)c3ccccc3C)CC2)c(OC)c1 [C21],> 67.6 µM
3,O=C(Nc1ccc(F)c(Cl)c1)C1CCN(C(=O)c2ccc(F)cc2)CC1 [C18],> 67.6 µM
4,Cc1ccc(C(=O)N2CCC(C(=O)Nc3ccc(C)c(C)c3)CC2)cc1 [C25],> 67.6 µM
5,O=C(Nc1ccc(Cl)c(C(F)(F)F)c1)C1CCN(C(=O)c2ccc(F)cc2)CC1 [C20],> 67.6 µM

# Same assay, conditions: Table 6, commercial compounds; read-out: TR-FRET IC50
row,Compound,IC50
1,CCN(CCN(C)C)C(=O)c1cnn(-c2ncc(C)c(-c3cccs3)n2)c1COC [E46],> 67.6 µM
2,COCCN1CCN(C(=O)c2cnn(-c3nccc(-c4cccs4)n3)c2C2CC2)CC1 [E13],28.8 µM
3,CCN(CC)CCN(CC)C(=O)c1cnn(-c2nccc(-c3cccs3)n2)c1COC [E22],54.9 µM
4,CCN(CCN(C)C)C(=O)c1cnn(-c2ncc(C)c(-c3cccs3)n2)c1C1CC1 [E53],> 67.6 µM
5,CN(C)CC(C)(C)CNC(=O)c1cnn(-c2nccc(-c3cccs3)n2)c1C1CC1 [E37],> 67.6 µM
6,CCN(CC)CCNC(=O)c1cnn(-c2ncc(C)c(-c3cccs3)n2)c1C1CC1 [E28],> 37.4 µM

# Same assay, conditions: Table 7, commercial compounds; read-out: TR-FRET IC50
row,Compound,IC50
1,Cc1cccc(C(=O)NC2C(=O)Nc3c(c(C)nn3C)C2c2ccc(C(C)C)cc2)c1 (stereo not drawn) [F16],> 67.6 µM
2,CCCOc1ccc(C2c3c(C)nn(C)c3NC(=O)C2NC(=O)c2cccc(C)c2)cc1OC (stereo not drawn) [F22],> 67.6 µM
3,CCCOc1cc(C2c3c(C)nn(C)c3NC(=O)C2NC(=O)c2ccc(Cl)cc2)ccc1OC (stereo not drawn) [F9],> 67.6 µM
4,Cc1nn(-c2ccccc2)c2c1C(c1ccc(C(F)(F)F)cc1)C(NC(=O)c1ccccc1)C(=O)N2 (stereo not drawn) [F19],> 67.6 µM
5,Cc1nn(C)c2c1C(c1ccc(F)c(F)c1)C(NC(=O)c1ccc(Cl)cc1)C(=O)N2 (stereo not drawn) [F26],> 67.6 µM
6,CCc1ccc(C2c3c(C)nn(C)c3NC(=O)C2NC(=O)c2ccc(OC)c(OC)c2)cc1 (stereo not drawn) [F24],> 67.6 µM
7,COc1ccc(C2c3c(C)nn(C)c3NC(=O)C2NC(=O)c2ccc(OC)c(OC)c2)cc1F (stereo not drawn) [F20],> 67.6 µM

# Same assay, conditions: read-out: TR-FRET IC50
row,Compound,IC50
1,CCCC(C)N1CCC(N(Cc2ccccc2)C(=O)Nc2ccc(F)c(Cl)c2)CC1 (stereo not drawn) [A53],0.287 µM
2,CCCC(C)N1CCC(N(CCNC(=O)CCl)C(=O)Nc2cccc(C(F)(F)F)c2)CC1 (stereo not drawn) [A251],> 59.9 µM
3,CCCC(C)N1CCC(N(Cc2ccccc2)C(=O)Nc2ccc(C)c([N+](=O)[O-])c2)CC1 (stereo not drawn) [A36],0.206 µM
4,CCCC(C)N1CCC(N(Cc2ccccc2)C(=O)Nc2ccc(F)cc2)CC1 (stereo not drawn) [A269],> 67.2 µM
5,CCCC(C)N1CCC(N(Cc2ccccc2)C(=O)Nc2ccccc2OC(F)(F)F)CC1 (stereo not drawn) [A191],44.9 µM
6,O=C(Nc1ccn(Cc2ccccn2)n1)NC1CCN(Cc2ccccc2)CC1 [B33],> 55.4 µM
7,"O=C(Nc1cccc(C(F)(F)F)c1)NC1CCN(Cc2cccc(F)c2)CC1 [A183, 1-(1-(3-Fluorobenzyl)Piperidin-4-yl)-3-(3-(Trifluoromethyl)Phenyl)Urea]",21.9 µM
8,CCCC(C)N1CCC(N(Cc2ccccc2)C(=O)Nc2ccc(S(=O)(=O)NC(C)=O)cc2)CC1 (stereo not drawn) [A283],> 72.1 µM
9,CC(=O)N1CCC(N(Cc2ccco2)C(=O)Nc2ccc(C)c(C)c2)CC1 [B69],> 67.6 µM
10,"Cc1ccc(NC(=O)NC2CCN(Cc3ccccc3)CC2)cc1Cl [B59, 1-(1-Benzylpiperidin-4-yl)-3-(3-Chloro-4-Methylphenyl)Urea]",> 67.6 µM
11,CCCC(C)N1CCC(N(Cc2ccccc2CNC(=O)CCl)C(=O)Nc2cccc(C(F)(F)F)c2)CC1 (stereo not drawn) [A24],0.154 µM
12,C#CCCCN1CCC(N(Cc2ccccc2NC(=O)CCl)C(=O)Nc2cccc(C(F)(F)F)c2)CC1 [A253],> 6.89 µM
13,CCCC(C)N1CCC(N(Cc2ccccc2)C(=O)Nc2ccccc2C(N)=O)CC1 (stereo not drawn) [A257],> 61.8 µM
14,CCCC(C)N1CCC(N(Cc2ccccc2)C(=O)Nc2ccc3c(c2)CCC3)CC1 (stereo not drawn) [A8],0.0767 µM
15,CC(c1ccccc1)N1CCC(N(Cc2ccccc2)C(=O)Nc2cc(F)cc(C(F)(F)F)c2)CC1 (stereo not drawn) [A148],4.98 µM
16,COc1cc(C(=O)N2CCC(c3nc4ccccc4s3)CC2)cc(OC)c1OC [D2],8.53 µM
17,CCCC(C)N1CCC(N(Cc2ccccc2)C(=O)Nc2ccc(C(=O)OC)cc2)CC1 (stereo not drawn) [A163],8.42 µM
18,CCCC(C)N1CCC(N(Cc2ccccc2)C(=O)Nc2cccc(OC)c2OC)CC1 (stereo not drawn) [A250],> 59.8 µM
19,CC(Cc1cccc(C(F)(F)F)c1)NC1CCN(Cc2ccccc2)CC1 (stereo not drawn) [B38],> 61.3 µM
20,N#Cc1cccc(CN2CCC(N(Cc3ccccc3)C(=O)Nc3cc(F)cc(C(F)(F)F)c3)CC2)c1 [A230],> 28.7 µM
21,Cc1cccc(NC(=O)NC2CCN(Cc3ccccc3)CC2)c1 [B57],> 67.6 µM
22,O=C(Nc1ccc(F)c(Cl)c1)N(Cc1ccc2c(c1)OCO2)C1CCN(Cc2ccccc2)CC1 [B16],50.7 µM
23,CCC(C)CN1CCC(N(Cc2ccccc2)C(=O)Nc2cc(F)cc(C(F)(F)F)c2)CC1 (stereo not drawn) [A121],1 µM

row,Compound,IC50
1,COc1cc(SC)ccc1C(=O)N1CCC(c2nc3ccccc3s2)CC1 [D21],> 67.6 µM
2,CCCCN1CCC(N(Cc2ccccc2)C(=O)Nc2ccc(F)c(Cl)c2)CC1 [A89],1.09 µM
3,O=C(NCCN1CCN(Cc2ccccc2C(F)(F)F)CC1)Nc1ccccc1 [B48],> 67 µM
4,O=C(c1ccccc1Cl)N1CCC(c2nc3ccccc3s2)CC1 [D6],18.5 µM
5,C#CCCCN1CCC(N(Cc2ccccc2NC(=O)/C=C/C)C(=O)Nc2cccc(C(F)(F)F)c2)CC1 [A195],> 100 µM
6,CCN1CCC(NC(=O)Nc2cc(Cl)ccc2Cl)CC1 [B54],> 67.6 µM
7,O=C(c1ccc(F)cc1)N1CCC(c2nc3ccccc3s2)CC1 [D15],> 46.2 µM
8,CC(C)C(C)N1CCC(N(Cc2ccccc2)C(=O)Nc2cc(F)cc(C(F)(F)F)c2)CC1 (stereo not drawn) [A122],1.12 µM
9,C=CS(=O)(=O)NCc1cccc(CN(C(=O)Nc2cccc(C(F)(F)F)c2)C2CCN(C(C)CCC)CC2)c1 (stereo not drawn) [drawing 849],< 0.01 µM
10,CCCC(C)N1CCC(N(Cc2ccccc2)C(=O)Nc2ccc(C)cc2F)CC1 (stereo not drawn) [A157],7.11 µM
11,CCCC(C)N1CCC(N(Cc2ccccc2)C(=O)Nc2cc(C)cc(Cl)c2)CC1 (stereo not drawn) [A99],1.41 µM
12,COc1ccc(CN(C(=O)Nc2cc(C)ccc2C)C2CCN(C(C)=O)CC2)cc1 [B82],> 67.6 µM
13,FC(F)(F)c1cccc(CN2CCN(Cc3nc4ccccc4[nH]3)CC2)c1 [B28],> 46.3 µM
14,CCCC1CCC(N(Cc2ccccc2)C(=O)Nc2cccc(C(F)(F)F)c2)CC1 (stereo not drawn) [A232],> 38.7 µM
15,1-Benzyl-1-(1-(Propylsulfonyl)Piperidin-4-yl)-3-(3-(Trifluoromethyl)Phenyl)Urea [A79],0.81 µM
16,O=C(Nc1ccc(Cl)cc1)NC1CCN(Cc2ccccc2)CC1 [B58],> 67.6 µM
17,CCCC(C)N1CCC(N(Cc2ccccc2)C(=O)Nc2cccc(O)c2)CC1 (stereo not drawn) [A177],14.5 µM
18,COC(=O)[C@@H]1C[C@@H](NC(=O)Nc2ccccc2)CN1Cc1ccccc1C(F)(F)F [B99],> 68 µM
19,1-(1-((1H-Pyrazol-3-yl)Methyl)Piperidin-4-yl)-1-Benzyl-3-(3-(Trifluoromethyl)Phenyl)Urea [A180],19.8 µM
20,C=CS(=O)(=O)NCc1ccccc1CN(C(=O)Nc1cccc(C(F)(F)F)c1)C1CCN(C(C)CCC)CC1 (stereo not drawn) [drawing 850],< 0.01 µM
21,CC(C1CCC1)N1CCC(N(Cc2ccccc2)C(=O)Nc2cc(F)cc(C(F)(F)F)c2)CC1 (stereo not drawn) [A118],0.143 µM
22,CCCC(C)N1CCC(N(Cc2ccccc2)C(=O)Nc2ccc(Cl)cc2C(=O)OC)CC1 (stereo not drawn) [A266],> 66.2 µM
